Results published in publication PMC8004375, “Pharmacokinetic Study of Safrole and Methyl Eugenol after Oral Administration of the Essential Oil Extracts of Asarum in Rats by GC-MS” (BioMed Research International, 2021).

Key:
[1] = International Agency for Research on Cancer classification; cited from earlier work
[2] = Pharmacokinetic study in rat plasma after oral administration of Asarum essential oil extracts (GC-MS); type: in vivo, Sprague–Dawley rats; conditions: oral Asarum extracts 20 g/kg; for MRT / Cmax / half-life / AUC(0-inf) / AUC(0-t) / Tmax / MRT last / MRT inf: male, Sprague-Dawley, in vivo; for MRT: 0−t or 0−∞ not specified, read-out: mean residence time; for Cmax: as stated in text without unit; for half-life: elimination half-life; for half-life / AUC(0-inf) / AUC(0-t) / Tmax / MRT last / MRT inf: n = 6, mean ± SD; for MRT last: read-out: MRT(0 − t); for MRT inf: read-out: MRT(0 − ∞)
Experimental: The GC–MS system (Shimadzu GC-MS QP-2010 Ultrasystem) was coupled with an AOC-20i autosampler. The column used was a DB-17 capillary column (30 m × 0.25 mm × 0.25 μm film thickness). 99.99% high purity Helium was used as the carrier gas with a flow rate of 1.3 mL/min. The column temperature was programmed as follows: initial temperature 90°C, 20°C/min to 106°C, 30°C/min to 136°C, 40°C/min to 210°C, and finally 5.5°C/min to 214°C. The injection volume was 1 μL, and the injection temperature was 250°C.
The MS data were acquired in the electron-impact mode, and the SIM mode was used for quantification. The three characteristic ions of safrole were 162.0, 131.0, and 104.0 and that of methyl eugenols were 178.0, 163.0, and 147.0 (ions in bold fonts were used for the quantification). The transfer line temperature was set at 250°C, and the ionization source temperature was set at 230°C. The total run time was 4.5 min with a solvent delay of 3 min.
100 μL plasma sample was incorporated with 10 μL n-hexane and 10 μL of IS (5 μg/mL) and vortexed for 30 seconds. 130 μL n-hexane was then added to the sample and vortex-mixed for 5 min. The samples were centrifuged (12,000 × g, 10 min, 4°C), and […] was injected for GC-MS analysis.
All animal protocols were approved by the Laboratory Animal Ethics Committee of Tianjin University Traditional Chinese Medicine (TCM-LAEC20190059). Six male Sprague–Dawley rats (body weight 240 ± 10 g) were fasted for 12 h prior to the study, with free access to water. The Asarum extracts were administered to rats orally at a dose of 20 g/kg. 0.5% CMC-Na aqueous solution was used to dissolve the Asarum extracts to a concentration of 2 g/mL suspension and stored at 4°C. Approximately 220 μL blood samples were collected from the suborbital vein into centrifuge tubes at 0, 0.08, 0.17, 0.5, 1, 2, 4, 6, 8, 10, 12, 24, 36, 48, and 60 h postadministration in rats. The plasma was separated by centrifugation at 4000 × g for 10 min immediately and frozen at -80°C until the time of analysis. The main program pharmacokinetic parameters were processed by Drug and Statistics 3.0 (Medical College of Wannan, China).

[3] = Stability of analytes in rat plasma (QC samples); type: in vitro ADME; conditions: for Stability in plasma samples: all conditions studied: room temperature 4 h, three freeze-thaw cycles, auto-sampler 12 h, -80°C 7 days; for Measured concentration, three freeze-thaw cycles / Measured concentration, -80°C for 7 days / Measured concentration, auto-sampler for 12 h / Measured concentration, room temperature for 4 h: rat plasma, n = 6; for Measured concentration, three freeze-thaw cycles: freeze -20°C
Experimental: The stability was evaluated under different condition with variable time and temperature including long-term stability (storing the QC samples at -80°C for 7 days), short-term stability (storing the QC samples at room temperature for 4 h), freeze/thaw stability (three freeze (-20°C) thaw cycles), and auto-sampler stability (incubating the spiked samples for 12 h in auto-sampler).

[4] = high QC (spiked 12000 ng/mL safrole, 8000 ng/mL methyl eugenol)
[5] = low QC (spiked 120 ng/mL safrole, 80 ng/mL methyl eugenol)
[6] = medium QC (spiked 1200 ng/mL safrole, 800 ng/mL methyl eugenol)

| SMILES | IARC carcinogen group [1] | MRT [2] | Cmax [2] | half-life [2] | AUC(0-inf) [2] | AUC(0-t) [2] | Tmax [2] | MRT last [2] | MRT inf [2] | Stability in plasma samples [3] | Measured concentration, three freeze-thaw cycles [3, 4] | Measured concentration, -80°C for 7 days [3, 4] | Measured concentration, auto-sampler for 12 h [3, 4] | Measured concentration, room temperature for 4 h [3, 4] | Measured concentration, three freeze-thaw cycles [3, 5] | Measured concentration, -80°C for 7 days [3, 5] | Measured concentration, auto-sampler for 12 h [3, 5] | Measured concentration, room temperature for 4 h [3, 5] | Measured concentration, three freeze-thaw cycles [3, 6] | Measured concentration, -80°C for 7 days [3, 6] | also measured |
| --- | --- | --- | --- | --- | --- | --- | --- | --- | --- | --- | --- | --- | --- | --- | --- | --- | --- | --- | --- | --- | --- |
| C=CCc1ccc2c(c1)OCO2 [Safrole] | group 2B carcinogen | 18.4 ± 0.64 h | 1980 ± 267 ng/mL | 2.44 ± 2.72 h | 53000 ± 5260 ng·h/mL | 53000 ± 5290 ng·h/mL | 13 ± 1.1 h | 18.4 ± 0.64 h | 18.4 ± 0.63 h | stable | 12526.3 ± 331.5 ng/mL | 12741.7 ± 103.1 ng/mL | 12065.2 ± 210.7 ng/mL | 12751.7 ± 38.6 ng/mL | 137.0 ± 10.6 ng/mL | 135.1 ± 11.0 ng/mL | 136.3 ± 11.8 ng/mL | 132.5 ± 12.4 ng/mL | 1319.7 ± 21.2 ng/mL | 1348.1 ± 41.4 ng/mL | detectable in plasma samples after [2]: 48 h; Measured concentration, auto-sampler for 12 h [3, 6]: 1271.1 ± 3.3 ng/mL; Measured concentration, room temperature for 4 h [3, 6]: 1306.7 ± 15.7 ng/mL |
| C=CCc1ccc(OC)c(OC)c1 [Methyl eugenol] | group 2B carcinogen | 10.6 ± 0.63 h | 823 ± 124 ng/mL | 3.67 ± 1.6 h | 15300 ± 2790 ng·h/mL | 15200 ± 2760 ng·h/mL | 6.67 ± 2.07 h | 10.6 ± 0.63 h | 10.6 ± 0.63 h | stable | 7287.0 ± 522.7 ng/mL | 7367.9 ± 638.7 ng/mL | 7100.8 ± 230.4 ng/mL | 7418.6 ± 62.9 ng/mL | 78.5 ± 6.5 ng/mL | 81.0 ± 5.2 ng/mL | 73.9 ± 6.1 ng/mL | 89.6 ± 8.8 ng/mL | 708.5 ± 16.2 ng/mL | 749.8 ± 40.7 ng/mL | completely metabolised after [2]: 36 h; Measured concentration, auto-sampler for 12 h [3, 6]: 727.7 ± 6.0 ng/mL; Measured concentration, room temperature for 4 h [3, 6]: 751.7 ± 7.8 ng/mL |
